From US20240376119A1, “SPIRO COMPOUND AND USE THEREOF” (CSPC Zhongqi Pharmaceutical Technology (Shijiazhuang) Co., …, priority 2021, published 2024)

What was measured:
[1] = tested on: human acute myeloid leukemia MV-4-11 cells; experiment: In vitro inhibitory effect on the proliferation of MV-4-11 cells (MTT, 72 h); assay type: cell-based; conditions: MV4-11, 72 hours exposure
Description: The human acute myeloid leukemia MV-4-11 cells used in the assay were purchased from Shanghai Institutes for Biological Sciences, Chinese Academy of Sciences. The complete culture medium required for cell culture was IMDM (GIBCO Company), which was supplemented with 10% fetal bovine serum (GIBCO Company). Cells were cultured in a 37° C., 5% CO2 incubator. The reagents used in the assay included dimethyl sulfoxide (purchased from Tianjin Kemiou Chemical Reagent Co., Ltd.), and MTT (Shanghai Topbiochem Co., Ltd., CAS. NO. 298-93-1). The test substance was sealed and stored at 4° C.
Dimethyl sulfoxide was used as the solvent to fully dissolve the test substance and prepare a stock solution with a concentration of 5×10^−2 mol/L. The stock solution was stored at −20° C. A complete culture medium was used as the diluent, and the test substance was diluted to different concentrations in a gradient for later use. 100 µL/well (2×10^4 cells/well) of a suspension of MV-4-11 cells in the complete culture medium was added to a 96-well culture plate. 100 μL/well of the corresponding test substances at different concentrations were added respectively. 8 concentrations were set for each test substance, and 3 duplicate wells were set for each concentration. The plate was cultured in a 37° C., 5% CO2 incubator. 20 μL/well of MTT was added after 72 hours of exposure to the test substances. The plate was cultured for 4 hours in a 37° C., 5% CO2 incubator. The supernatant was discarded, and 150 μL/well of dimethyl sulfoxide was added. The plate contents were oscillated and mixed evenly. The microplate reader was used to detect the OD value at a wavelength of 550 nm. The well only containing the cell suspension without test substance was a control well, and the well only containing the complete culture medium was a blank well. The inhibition rate of the cell growth was calculated with the following formula: • Inhibition rate=(ODcontrol well-ODtest well)/(ODcontrol well-ODblank well)*100%. According to the inhibition rates at each concentration, SPSS software was used to calculate the half inhibitory concentration IC50 value.

SHP2 = SHP2 (Homo sapiens (Human), UniProt Q06124); experiment: Assay for the inhibitory effect on the SHP2 enzyme (DiFMUP substrate, fluorescence); assay type: biochemical; conditions: SHP2 activated with SHP-2 activated peptide; DiFMUP 10 μM; read-out: Enzymatic Effect (IC50 on SHP2)
Description: 1× Assay buffer was prepared. A compound to be tested was diluted with DMSO solvent to a stock concentration of 10 mM. The compound to be tested was first diluted to an intermediate concentration of 1000 μM and then further diluted in a 3-fold gradient using DMSO. Therefore, the intermediate gradient dilution concentration of the compound to be tested was: 1000 μM, 3-fold dilution, 11 gradients. 100 nL of each concentration of the compound in the 384-well LDV echo plate was transferred to a new 384-well ELISA plate (assay plate) (corning, Cat #4514) by the Echo550 instrument. The final concentration of the compound to be tested was 10 μM, 3-fold dilution, 11 gradients in duplicate after 10 μL of the reaction reagent was added. The final DMSO concentration was 1%. For both negative and positive control wells, 100 nL DMSO would be transferred.
A mixed liquor of 2× working SHP2 reagent (0.4 nM) and 0.5 μM SHP-2 activated peptide (BPS bioscience #79319-2) was prepared with 1× enzyme buffer. After the above-mixed liquor was incubated at 25° C. for 60 minutes, 5 μL of activated SHP2 kinase solution was transferred with a pipettor to the compound wells and the Max control wells (Corning, #4514) of the plate. Then 5 μL of 1× kinase buffer was transferred to the Min control wells. The plate was centrifuged at 1000 rpm for 30 seconds, sealed, and incubated in a 25° C. constant-temperature incubator for 30 minutes. A substrate solution of DiFMUP (#D6567, Invitrogen™) was prepared with 1× kinase buffer, and its concentration should be 2 times as the final concentration of the assay (DiFMUP final concentration: 10 μM). 5 μL of the prepared substrate solution was transferred with an electric pipettor into each well of the ELISA plate to start the reaction. The plate was centrifuged at 1000 rpm for 30 seconds, sealed, and incubated in a 25° C. constant-temperature incubator for 60 minutes. Read the plate at the excitation/emission wavelength of 358/455 nm after the ELISA plate was placed on the Spark machine.
The RLU values were collected from Spark and the inhibition rate was calculated with the RLU values. Inhibition rate=(maximum value-sample RLU)/(maximum value-minimum value)*100. “Minimum value” was referred to the RLU of the enzyme-free control, and “maximum value” was referred to the RLU of the DMSO control. The data were fit by using the XLFit Excel module (version 5.4.0.8) to obtain IC50 values, and the results are shown in Table 1.

SHP2, sequence (Q06124 whole entry): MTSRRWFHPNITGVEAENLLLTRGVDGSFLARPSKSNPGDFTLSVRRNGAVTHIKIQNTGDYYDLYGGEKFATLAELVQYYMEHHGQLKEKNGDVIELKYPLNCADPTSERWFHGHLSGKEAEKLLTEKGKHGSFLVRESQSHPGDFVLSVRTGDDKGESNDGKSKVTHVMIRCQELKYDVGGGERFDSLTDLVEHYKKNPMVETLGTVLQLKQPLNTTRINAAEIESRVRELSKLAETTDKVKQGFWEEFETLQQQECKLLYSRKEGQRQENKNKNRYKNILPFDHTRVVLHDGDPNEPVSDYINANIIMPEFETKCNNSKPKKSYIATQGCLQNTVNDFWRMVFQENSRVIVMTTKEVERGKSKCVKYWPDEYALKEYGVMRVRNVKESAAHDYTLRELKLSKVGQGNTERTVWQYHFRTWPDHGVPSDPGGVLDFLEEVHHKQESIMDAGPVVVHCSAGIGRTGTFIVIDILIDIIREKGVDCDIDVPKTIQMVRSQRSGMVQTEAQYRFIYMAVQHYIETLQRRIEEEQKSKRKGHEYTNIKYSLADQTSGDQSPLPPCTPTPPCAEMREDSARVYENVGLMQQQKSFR

`[2H][C@@]1(N)c2ccccc2OC12CCN(c1nc(N)c(Sc3ccnc(N)c3Cl)nc1C(C)=O)CC2` [Compound 56, (R)-1-(5-amino-6-((2-amino-3-chloropyridine-4-yl)sulfanyl)-3-(3-amino-3-deuterium-spiro[benzofuran-2,4′-piperidine]-1′-yl)pyrazine-2-yl)ethanone] showed an IC50 [1] of at most 20 nM and an IC50 (SHP2) of at most 0.02 µM.
